The text below walks through data of patent US11717500B2, “Treatment of spondyloarthritis” (PHARMACYL AB, priority 2020, dated 2023).

Molecules are shown by their SMILES. Counter-ions that a name gives are not always drawn. Like-named read-outs stand apart in the source and are kept apart here.

The test system of assay [1] is LPS-induced TNF-α production in RAW264.7 murine macrophage cells. The experiment in a line: Suppression of LPS-induced TNF-α production in RAW264.7 macrophages (ELISA). In kind it is cell-based. As to conditions: Mus musculus. The source says:
Macrophages serve a critical role in the initiation and propagation of inflammatory responses by releasing proinflammatory mediators, such as TNF-α. Lipopolysaccharide (LPS) is a potent initiator of an inflammatory response. During LPS stimulation, NF-κB signaling is activated to regulate the transcription of numerous genes involved in immunity and inflammation to produce proinflammatory cytokines, such as TNF-α. Suppression of LPS-induced TNF-α production in RAW264.7 macrophages treated with AABZ was investigated by evaluation of the generation of TNF-α.
The RAW264.7 macrophage line was maintained in DMEM supplemented with 5% FBS at 37° C. in a 5% CO2-humidified air environment. The RAW264.7 cells were seeded in 96-well plates at a density of 1×10^5/ml and a volume of 200 μl/well. The cells were incubated for 24 h in medium supplemented with 10% FBS and were then pre-incubated with or without the indicated concentrations of test substances for 2 h prior to the addition of LPS (1 μg/ml). The supernatants were subsequently harvested at various time points and production of the proinflammatory cytokine TNF-α in the culture medium was determined using a commercially available enzyme-linked immunosorbent assay (ELISA) kit according to the manufacturer's protocol.
Effects of some AABZs of the invention at 1 mM on LPS-induced TNF-production in RAW264.7 murine macrophage cells are shown in Table 2.

The target in another assay is dopamine D2 receptor (Homo sapiens (Human), UniProt P14416). The experiment in a line: Dopamine D2 receptor affinity, in vitro radioligand binding with 125I-spiperone. Conditions: 125I-spiperone as radioactive ligand. The text has this:
It is well-known that drug compounds that have an affinity for the striatal dopamine D2 may give rise to adverse side effects, such as short-term extrapyramidal disorders and tardive dyskinesia.

The subject of a further assay is AP-1. Conditions: T cells; cited from earlier work.
The test system of a further assay is IκBβ. As to conditions: cited from earlier work.
In another assay the test system is NFAT. Conditions: T cells; cited from earlier work.
Another assay concerns NF-κB. Conditions: T cells; cited from earlier work.
[2] abbreviates: RAW264.7, read-out: % Inhibition of TNF-production.

Chain of dopamine D2 receptor (P14416 whole entry, species assumed): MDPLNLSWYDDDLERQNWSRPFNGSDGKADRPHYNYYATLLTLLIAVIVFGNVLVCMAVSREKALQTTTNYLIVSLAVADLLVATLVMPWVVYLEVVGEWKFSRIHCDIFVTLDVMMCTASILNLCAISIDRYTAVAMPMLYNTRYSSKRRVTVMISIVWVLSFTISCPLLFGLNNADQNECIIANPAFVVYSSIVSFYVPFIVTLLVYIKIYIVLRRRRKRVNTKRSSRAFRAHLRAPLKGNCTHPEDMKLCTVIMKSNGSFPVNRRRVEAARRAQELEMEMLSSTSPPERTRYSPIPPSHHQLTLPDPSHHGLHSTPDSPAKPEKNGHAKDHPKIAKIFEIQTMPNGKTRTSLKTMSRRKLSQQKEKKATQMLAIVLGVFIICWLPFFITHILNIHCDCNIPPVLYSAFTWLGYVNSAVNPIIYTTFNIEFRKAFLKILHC

As for `CCN(CC)CCNC(=O)c1ccc(NC(C)=O)cc1` [4-Acetamido-N-[2-(diethylamino)ethyl]benzamide hydrochloride], the inhibition at 1000 µM in assay [1] (1 mM, LPS 1 μg/ml, RAW264.7 murine macrophage cells, read-out: % Inhibition of TNF-production) was 56%.
`CCN(CC)CCNC(=O)c1ccc(NC(=O)C(C)C)c(Cl)c1` [4-Isobutyrylamino-3-chloro-N-[2-(diethylamino)ethyl]benzamide hydrochloride]: in assay [1] (setting [2]), the inhibition at 1000 µM was found to be 63%.
On to `CCN(CC)CCNC(=O)c1ccc(N)c(Cl)c1` [Declopramide, declopramide], for which, on dopamine D2 receptor, the IC50 stood at 38.6 µM.
With `CCC(=O)Nc1ccc(C(=O)NCCN(CC)CC)cc1Cl` [4-Propanoylamino-3-chloro-N-[2-(diethylamino)ethyl]benzamide hydrochloride], in assay [1] (setting [2]), the inhibition at 1000 µM turned out to be 50%.
For the compound `CCN(CC)CCNC(=O)c1ccc(NC(C)=O)c(Cl)c1` [Cpd A, 4-Acetamido-3-chloro-N-[2-(diethylamino)ethyl]benzamide hydrochloride], the inhibition at 1000 µM in assay [1] (setting [2]) was determined as 45%. Besides, on dopamine D2 receptor, the IC50 was 975 µM. Also, the “effect on AP-1 activity” value with AP-1 was “induce AP-1 activity”. In addition, in the assay on IκBβ, the “effect on breakdown of IκBβ” value is “inhibit breakdown”. Also, the “effect on NFAT activity” value with NFAT is on record as “inhibit activities”. The “effect on NF-κB activity” value with NF-κB is recorded as “inhibit activities”.
